Data from PubChem BioAssay (NCI).
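Protocol summary: plate cells (96-well), add compound at 5 concentrations, incubate 48 h, interpolate endpoints linearly. At the TGI there is no net growth.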

Experiments:
Assay in all cases: NCI-60 cell line screen, 48 h
[1] = system: BT-549 breast
[2] = system: SNB-75 CNS
[3] = system: OVCAR-8 ovarian
[4] = system: SK-OV-3 ovarian
[5] = system: CAKI-1 renal
[6] = system: KM12 colon
[7] = system: ACHN renal
[8] = system: OVCAR-4 ovarian
[9] = system: 786-0 renal
[10] = system: NCI-H23 lung
[11] = system: HCC-2998 colon
[12] = system: SK-MEL-2 melanoma
[13] = system: SR leukemia
[14] = system: HCT-15 colon
[15] = system: MALME-3M melanoma
[16] = system: M14 melanoma
[17] = system: HL-60(TB) leukemia
[18] = system: RXF 393 renal
[19] = system: A498 renal
[20] = system: SF-268 CNS
[21] = system: HT29 colon
[22] = system: PC-3 prostate
[23] = system: A549 NSCLC
[24] = system: MDA-MB-231 breast
[25] = system: LOX IMVI melanoma
[26] = system: SF-295 CNS
[27] = system: MDA-N
[28] = system: NCI-H226 lung
[29] = system: SK-MEL-28 melanoma
[30] = system: SK-MEL-5 melanoma
[31] = system: COLO 205 colon
[32] = system: EKVX NSCLC
[33] = system: SF-539 CNS
[34] = system: CCRF-CEM leukemia
[35] = system: HS 578T breast
[36] = system: SN12C renal
[37] = system: OVCAR-5 ovarian
[38] = system: NCI/ADR-RES ovarian
[39] = system: NCI-H460 lung
[40] = system: OVCAR-3 ovarian
[41] = system: UACC-62 melanoma
[42] = system: NCI-H522 lung
[43] = system: HOP-92 NSCLC
[44] = system: T-47D breast
[45] = system: K-562 leukemia
[46] = system: HCT-116 colon
[47] = system: DU-145 prostate
[48] = system: MOLT-4 leukemia
[49] = system: UO-31 renal
[50] = system: SW-620 colon
[51] = system: IGROV1 ovarian
[52] = system: SNB-19 CNS
[53] = system: MDA-MB-435
[54] = system: U251 CNS
[55] = system: MCF7 breast
[56] = system: UACC-257 melanoma
[57] = system: RPMI-8226 leukemia
[58] = system: TK-10 renal

Measured: TGI

O[C@H]1[C@H]2[C@H](O)C[C@H](CCOCc3ccccc3)CN2C[C@H]1O
not listed: [58]
> 100 µM: all other assays above

O=C(O)c1cc(O)c2c(c1)C([C@@H]1c3cccc(O)c3C(=O)c3c(O)cc(C(=O)O)cc31)c1cccc(O)c1C2=O (some centres not stated)
49 µM: [53]
96.9 µM: [20]
31.9 µM: [25]
44.3 µM: [6]
91.8 µM: [55]
69.4 µM: [35]
57.7 µM: [43]
32.2 µM: [30]
69.2 µM: [48]
85.5 µM: [17]
95.8 µM: [24]
55 µM: [33]
62.6 µM: [2]
41.5 µM: [27]
49.4 µM: [51]
78.6 µM: [41]
67.8 µM: [54]
69.3 µM: [19]
85 µM: [18]
38.1 µM: [46]
44.6 µM: [42]
44.7 µM: [15]
86.4 µM: [45]
not listed: [12] | [14] | [16]
> 100 µM: all other assays above
